Assay results taken from US5237055A, “Chemical modification of 2"-amino group in elsamicin A” (Bristol-Myers Squibb Company, priority 1992, dated 1993).
Values after ≈ are worked out from the molar mass of the structure shown. Structures can show the parent of a compound that is named as a salt.

Assays:
[1] = system: lymphocytic leukemia P388; test: In vivo antitumor activity against P388 leukemia in mice; design: species or system mice (female CDF1); details: for prolongation of life-span in the P388-bearing mice / times less active than the parent compound in terms of minimum effective doses (MED): P388, Q1Dx3, ip; for times less active than the parent compound in terms of minimum effective doses (MED): relative to elsamicin A
Experimental: (§1) Among the derivatives tested, in vivo antitumor activity of six derivatives showing relatively potent cytotoxicity was tested in the lymphocytic leukemia P388 and B16 melanoma systems. Female CDF1 (for P388) and male BDF1 (for B16) mice were inoculated by ip injection at 10^6 P388 cells and 0.5 ml of a 10% B16 brei per mouse, respectively (day 0). […] The percent increase of median survival time (MST) of treated animals over that of untreated control animals was determined and reported as T/C %. Compounds showing T/C % values of 125 or greater are considered to have significant antitumor activity. […] The others had no activity at the doses tested. Derivatives 4d, 4e, and 5 when tested in the B16 system, also gave 10-30 times less antitumor activity than elsamicin A in terms of MED (Table 5).

[2] = system: murine melanoma B16-F10 cells; test: cells; details: Mus musculus, B16-F10, 72 h, read-out: Cytotoxicity IC50
Experimental: For in vitro cytotoxicity experiment, murine melanoma B16-F10 cells were grown and maintained in Eagle's minimum essential medium (Nissui), which contains kanamycin (60 μg/ml), supplemented with heat-inactivated fetal calf serum (10%) and nonessential amino acids (0.6%) at 37° C. under a humidified atmosphere in a 5% CO2 incubator. Exponentially growing B16-F10 cells were harvested, counted and suspended in the culture medium at the concentration of 2.0×10^4 cells/ml. The cell suspension (180 μl) was planted into wells of a 96-well microtiter plate and incubated for 24 hours. Test compounds (20 μl) were added to the wells and the plates were further incubated for 72 hours. The cytotoxic activity was colorimetrically determined at 540 nm after staining viable cells with neutral red solution.

B16 melanoma = test: In vivo antitumor activity against B16 melanoma in mice; design: species or system mice (male BDF1); details: B16, Q4Dx3 ip; relative to elsamicin A
Experimental: as §1

Compound | T/C % of MST ([1]; P388, 20 mg/kg/day, Q1Dx3, ip) | IC50 [2] | prolongation of life-span in the P388-bearing mice [1] | times less active than the parent compound in terms of minimum effective doses (MED) [1] | times less antitumor activity than elsamicin A in terms of MED (B16 melanoma)
CO[C@@H]1[C@@H](N)[C@@H](O[C@H]2[C@H](Oc3cccc4c(O)c5c(=O)oc6ccc(C)c7c(=O)oc(c34)c5c67)O[C@H](C)[C@H](O)[C@]2(C)O)O[C@H](C)[C@@H]1O [Compound 1, Elsamicin A] | Tox |  |  |  | 
CO[C@H]1[C@@H](O)[C@@H](C)O[C@H](O[C@H]2[C@H](Oc3cccc4c(O)c5c(=O)oc6ccc(C)c7c(=O)oc(c34)c5c67)O[C@H](C)[C@H](O)[C@]2(C)O)[C@@H]1NC(C)=O [Compound 3a, 2"-N-Acetylelsamicin A] |  | 55 µg/mL (≈ 79.1 µM) |  |  | 
CO[C@H]1[C@@H](O)[C@@H](C)O[C@H](O[C@H]2[C@H](Oc3cccc4c(O)c5c(=O)oc6ccc(C)c7c(=O)oc(c34)c5c67)O[C@H](C)[C@H](O)[C@]2(C)O)[C@@H]1NC(=O)CCC(=O)O [Compound 3b, 2"-N-(3-Carboxypropionyl)elsamicin A] |  | 56 µg/mL (≈ 74.3 µM) |  |  | 
CO[C@H]1[C@@H](O)[C@@H](C)O[C@H](O[C@H]2[C@H](Oc3cccc4c(O)c5c(=O)oc6ccc(C)c7c(=O)oc(c34)c5c67)O[C@H](C)[C@H](O)[C@]2(C)O)[C@@H]1NC(=O)CN [Compound 3d, 2"-N-Glycylelsamicin A] |  | 4.1 µg/mL (≈ 5.77 µM) |  |  | 
CO[C@H]1[C@@H](O)[C@@H](C)O[C@H](O[C@H]2[C@H](Oc3cccc4c(O)c5c(=O)oc6ccc(C)c7c(=O)oc(c34)c5c67)O[C@H](C)[C@H](O)[C@]2(C)O)[C@@H]1NC(C)C [Compound 4a, 2"-N-Isopropylelsamicin A] |  | 1.5 µg/mL (≈ 2.16 µM) | quite limited prolongation of life-span | 10-30 times | 
CN[C@H]1[C@@H](O[C@H]2[C@H](Oc3cccc4c(O)c5c(=O)oc6ccc(C)c7c(=O)oc(c34)c5c67)O[C@H](C)[C@H](O)[C@]2(C)O)O[C@H](C)[C@H](O)[C@@H]1OC [Compound 4d, 2"-N-Methylelsamicin A] |  | 1.7 µg/mL (≈ 2.55 µM) | quite limited prolongation of life-span | 10-30 times | 10-30 times
CO[C@H]1[C@@H](O)[C@@H](C)O[C@H](O[C@H]2[C@H](Oc3cccc4c(O)c5c(=O)oc6ccc(C)c7c(=O)oc(c34)c5c67)O[C@H](C)[C@H](O)[C@]2(C)O)[C@@H]1N(C)C [Compound 4e, 2"-N,N-Dimethylelsamicin A] |  | 0.36 µg/mL (≈ 0.528 µM) | quite limited prolongation of life-span | 10-30 times | 10-30 times
CO[C@H]1[C@@H](O)[C@@H](C)O[C@H](O[C@H]2[C@H](Oc3cccc4c(O)c5c(=O)oc6ccc(C)c7c(=O)oc(c34)c5c67)O[C@H](C)[C@H](O)[C@]2(C)O)[C@@H]1N1CCOCC1 [Compound 4f, 2"-Deamino-2"-morpholinoelsamicin A] |  | 11 µg/mL (≈ 15.2 µM) |  |  | 
CO[C@H]1[C@@H](O)[C@@H](C)O[C@H](O[C@H]2[C@H](Oc3cccc4c(O)c5c(=O)oc6ccc(C)c7c(=O)oc(c34)c5c67)O[C@H](C)[C@H](O)[C@]2(C)O)[C@@H]1NC=N [Compound 5, 2"-N-Formimidoylelsamicin A hydrochloride] |  | 0.47 µg/mL | quite limited prolongation of life-span | 10-30 times | 10-30 times
